# Reference: patent US20080234368A9, “Therapeutic compositions and methods of use” (Trustees of Dartmouth College, priority 1998, published 2008)
# Tests used:
# COX-2 mRNA = experiment: Northern blot for COX-2 mRNA in RAW 264.7 cells; type: cell-based, mouse; details: CDDO 10^−6 M, RAW 264.7, 12 h
# Description: (§1) FIG. 14(A) illustrates Western blots; primary mouse macrophages; IFN-γ, 10 ng/ml; LPS, 2 ng/ml were added to cultures together with triterpenoids or dexamethasone (concentrations shown as […]); cells were harvested at 12 h. FIG. 14(B) illustrates Northern blots, RAW 264.7 macrophage-like cell line. IFN-γ, 10 ng/ml; LPS, 1 ng/ml; TNF-α, 10 ng/ml, were added to cultures together with CDDO or dexamethasone. RNA prepared after 12 h; GAPDH used as a loading control. FIG. 14(C) illustrates suppression of production of NO and PGEF in primary macrophages. For NO studies, cells were treated with IFN-γ, 10 ng/ml, together with CDDO (M), dexamethasone (O), TP-82 (□), or oleanolic acid (A). After 48 h, supernatants were analyzed for NO by the Griess reaction. For PGEF studies, cells were treated with IFN-γ, 5 ng/ml, and LPS, 5 ng/ml, together with the same set of inhibitors. After 48 h, PGE was measured in supernatants by immunoassay. Control values (no inhibition) for NO and PGE2 were 4.7 nmol/[…] and 2.2 ng/ml/2×10^5 cells, respectively. FIGS. (14D) and (14E) illustrate (human colon myofibroblasts) ^18Co cells grown in MEM/10% FBS; other methods are the same as reported above for macrophages. FIG. 14(D) illustrates Northern blots showing dose-response for suppression of COX-2 mRNA after induction with IL-1β (30 pg/ml). CDDO was added together with IL-1. […]
# iNOS = experiment: Western blot for iNOS protein in stimulated primary macrophages; type: cell-based, mouse; details: concentrations of 1 μM or less; IFN-γ 10 ng/ml, LPS 2 ng/ml, 12 h
# Description: as §1
# 3T3-L1 fibroblasts = experiment: Adipogenic differentiation, induction of GPDH; type: cell-based
# Description: CDDO induces monocytic differentiation in the poorly differentiated LCDB acute myelogenous leukemia cell line, derived from a chemotherapy-resistant patient at the NCI Pediatric Oncology Branch. FIG. 11 illustrates LCDB cells seeded in RPMI 1640/2% FBS, either alone (11A), with 2.5 ng/ml TGF-β1 (11B), with 10^−8 M CDDO (11C), or with both TGF-β1 and CDDO (11D). After 48 h, cytospin slide preparations were made and stained for α-naphthyl acetate esterase activity (kit from Sigma). PC12 cells were cultured for 5 days in gridded dishes in DMEM/10% FBS and 5% horse serum (Smith et al., 1997), either alone (11E), with 100 ng/ml 7S NGF (11F), with 10^−6 M CDDO (11G), or with both NGF and CDDO (11H). […] Methods for quantitative image analysis of size of cells and neurites have been described (De 1a Torre et al., 1997). Control cells in FIG. 11E are approximately 10 μm in diameter. 3T3-L1 cells were grown to confluency in DMEM/5% calf serum, and then treated once with CDDO in DMEM/10% FBS (FIG. 12A) or with CDDO and/or LG100268 in DMEM/10% FBS (FIG. 12B). Every two days thereafter, medium was changed to DMEM/10% FBS, without added CDD0 or LG100268. Cells were harvested on day 8 (FIG. 12A) or day 6 (FIG. 12B), and GPDH was measured in lysates, using a standard assay for consumption of NADH at 340 nm (Wise and Green, 1979). […]
# [1] = test system: NO production in primary macrophages; experiment: Suppression of NO production in primary macrophages (FIG. 14C); type: cell-based, mouse; details: levels as low as 10^−9 M; IFN-γ 10 ng/ml, 48 h
# Description: as §1
# COX-2 [2] = experiment: TPA-induced COX-2 in 184B5/HER mammary epithelial cells; type: cell-based, human; details: 184B5/HER cells
# From the text: These cells were selected because of the importance of stromal cell COX-2 in colon carcinogenesis (Oshima et al., 1996). […] Although CDDO effectively blocks the induction of COX-2 by agents such as IFN-γ, LPS, TNF-α, and IL-1, CDDO is ineffective when TPA is used as the inducer of COX-2. This has been seen in 18Co cells, as well as in the human mammary epithelial cell line, 184B5/HER (Zhai et al., 1993).
# [3] = test system: IFN-γ-induced NO production in mouse macrophages; experiment: Inhibition of IFN-γ induced NO production in mouse macrophages; type: cell-based; details: read-out: IC50, inhibition of IFN-γ induced NO production
# Description: The inhibitory activities of these compounds and dexamethasone on IFN-γ induced NO production in mouse macrophages is shown below in Table 1. The following procedure for the assay ws used. Macrophages were harvested from female mice injected intraperitoneally four days previously with 4% thioglycollate. These cells were seeded in 96-well tissue culture plates and incubated with 4 ng/mL IFN-γ in the presence or absence of inhibitory test compounds. After 48 hours NO production (measured as nitrite by the Griess reaction) was determined. Full details of the assay are given in Ding et al., 1990; Bogdan et al., 1992.
# [4] = test system: PGE2 production in primary macrophages; experiment: Suppression of PGE2 production in primary macrophages (FIG. 14C); type: cell-based, mouse; details: levels as low as 10^−9 M; IFN-γ 5 ng/ml and LPS 5 ng/ml, 48 h
# Description: as §1
# [5] = test system: THP-1 monocytic leukemia line; experiment: Differentiation of leukemia cells (data not shown); type: cell-based, human; details: by itself or in combination with TGF-β1
# COX-2 [6] = experiment: Western blot for COX-2 protein in stimulated primary macrophages; type: cell-based, mouse; details: concentrations of 1 μM or less; IFN-γ 10 ng/ml, LPS 2 ng/ml, 12 h
# Description: as §1
# COX-2 [7] = experiment: Western blot for IL-1β-induced COX-2 protein in 18Co colon myofibroblasts; type: cell-based, human; details: 18Co cells, IL-1β 30 pg/ml
# Description: as §1
structure (smiles),measurement,setting,value
"CC1(C)CC[C@]2(C(=O)O)CC[C@]3(C)[C@H](C(=O)C=C4[C@@]5(C)C=C(C#N)C(=O)C(C)(C)[C@@H]5CC[C@]43C)[C@@H]2C1 [Compound 6, 2-cyano-3,12-dioxoolean-1,9-dien-28-oic acid]",lowering of COX-2 mRNA expression,COX-2 mRNA,greater than 75%
same,expression of iNOS protein,iNOS,blocked expression
same,"adipogenic differentiation, combination with RXR-selective retinoid LG100268","3T3-L1 fibroblasts; CDDO with LG100268, day 6",acts synergistically
same,"adipogenic differentiation, induction of GPDH","3T3-L1 fibroblasts; doses as low as 10^−8 M, without insulin, dexamethasone, IBMX, day 8",caused adipogenic differentiation
same,inhibition of cumulative NO production,[1],Significant inhibition
same,blocking of COX-2 induction with TPA as inducer,COX-2 [2],ineffective
same,IC50,[3],1 nM
same,inhibition of cumulative PGE2 production,[4],Significant inhibition
same,differentiative effects,[5],differentiative effects
same,expression of COX-2 protein,COX-2 [6],blocked expression
same,induction of COX-2 protein,COX-2 [7],blocked induction
